Here are results for three compounds from patent publication US5498601A, “Platelet aggregation-inhibiting peptides” (Nippon Steel Corporation, priority 1992, dated 1996).

For series [1], the system named is human platelets.
Experimental: (§4) Immediately after the blood collection, the syringe was stirred gently to mix the blood with the sodium citrate solution. The mixed blood was centrifuged (1100 rpm, 250 g) at room temperature for 15 minutes and the rotation was stopped without applying the brake. Then, the supernatant was collected with a pipette to obtain a platelet fraction. The remaining blood was further centrifuged (3000 rpm, 1000 g). The supernatant was collected to obtain platelet-poor plasma and stored.
(§5) The platelet fraction was placed in a polypropylene test tube, which was capped with a membrane filter to ensure breathability. Then, the test tube was placed on a shaker and stored at room temperature while shaking through vibrational amplitude of 20 cm at a frequency of 2 Hz. All the operations were performed under aseptic conditions to prevent the proliferation of bacteria during the storage.
(§6) After the storage for a given period of time, an aliquot of the platelet fraction was sampled and the number of platelets was measured. Prostaglandin E1 (Sigma Co.) was added to give a final concentration of 20 μg/ml and centrifuged at 750 g for 10 minutes. The supernatant was removed and the remainder was washed twice with HEPES-Tyrode's buffer containing prostaglandin E1 to remove the protected peptide. Finally, the platelets were suspended in preliminarily stored platelet-poor plasma. After the incubation for a given period of time, the aggregation ability of the platelets was determined by the method described above.
For series [2], the system named is platelet aggregation. The series is described as follows: intravenous injection in beagle, platelet aggregation of PRP measured over time. The series is classed as in vivo. Conditions: 5 mg/Kg i.v. On the procedure: (1) In order to examine how long the peptides of the present invention and heparin, which is used as an anticoagulant at present, can remain without being broken down or eliminated and how long the activity of them persists, intravenous injection experiments were carried out using beagles.
Since the peptides of the present invention have the platelet aggregation-inhibiting activity, the amount of the peptides which remain in the body of an organism without being broken down can be determined by collecting blood and measuring the platelet aggregation-inhibiting activity of the blood at given intervals of time. Thus, the in vivo stability of the peptides can be estimated.
In the experiments, a male beagle having a body weight of 10 Kg was used. […] The collected blood was centrifuged at 1000 rpm for 10 minutes to prepare platelet-rich plasma (PRP). The reminder was further centrifuged at 3000 rpm for 15 minutes to prepare platelet-poor plasma (PPP).
The platelet aggregation ability was determined by measuring the platelet aggregation of the PRP with collagen and ADP using an aggregometer. In the measurement, ADP was added at a final concentration of 7.5 and 10.0 μM and collagen was added at a final concentration of 7.5 and 10.0 μg/ml.

For series [3], the system named is Hela cells. Briefly: adhesion of HeLa cells to extracellular matrix protein adsorbed plates. It is filed as cell-based. The method, then: (§1) (1) Using type 1 collagen (Iwaki Glass, type I-c), type 4 collagen (Iwaki Glass, type IV), fibronectin (human-origin, Iwaki Glass), vitronectin (human-origin, Iwaki Glass) and laminin (mouse […] sarcoma-origin, Iwaki Glass) as extracellular matrix proteins, experiments were performed to examine cell adhesion to a plastic plate on which those ectracellular matrix proteins had been adsorbed.
(§2) Each of the collagens was diluted with saline (adjusted to pH 3.0 with hydrochloric acid) to prepare a dilution at a concentration of 100 μg/ml for use in adsorption. The remaining three proteins were diluted with PBS of pH 7.4 to prepare dilutions at a concentration of 20 μg/ml for further use. […]
(§3) After the incubation for one hour according to the method described above, all the liquid present in each well was removed and the wells were washed three times with PBS to remove non-adherent cells. […] The concentration of methylene blue releasing from the cells was determined by a spectrophotometer on the basis of absorbance at 600 nm measured. In this measurement system, the number of cells adhering to the extracellular matrix proteins is proportional to the absorbance at 600 nm and therefore can be measured with precision.

Series [4] has as its system human platelets. Briefly: protection of human platelet fraction during storage.
Experimental: as §4, §5, §6
The test system of series [5] is blood coagulation in the dialysis circuit. Briefly: extracorporeal circulation (artificial dialysis) model using a beagle. The series is classed as in vivo. On the procedure: In order to confirm that the peptides of the present invention have the action of inhibiting blood coagulation in an extracorporeal circulation system, experiments were carried out on an artificial dialysis model using a beagle which is one of extracorporeal circulation models (see Hamano et al., Thromb. Res. 55 (1989) 438-449).
In the experiments, beagles weighing about 10-12 Kg were used. The beagles were anesthetized with pentobarbital (about 30 mg/Kg) and the right hind leg was incised to expose the femoral artery and femoral vein. Cannulas were inserted into the exposed femoral artery and femoral vein and connected to the artificial dialyzator for experiments (Kuraray, Osaka, Japan) having a circuit configuration as shown in FIG. 5. A hollow-fiber dialyzer (RENAK-A, RA-04, 0.4 m^2, Kawasumi Laboratories, Tokyo) was used. A pump for blood was placed between the femoral artery and the dialyzator and operated to keep the blood flow rate at 25 ml/min in the extracorporeal circulation system during the experiments.
The following three parameters were measured in the experiments: 1 the pressure in the up-stream portion of the dialyzer (perfusion pressure), 2 the percent platelet adhesion and 3 the whole blood coagulation time. The pressure under 1 was measured by a pressure gauge incorporated in the upper stream portion of the dialyzator in the dialysis circuit as shown in FIG. 5. Since at the site of dialyzer blood often experiences contacts with foreign materials and blood flows in a narrow space, blood coagulation is most likely to occur at this site in the dialysis circuit. If blood coagulation occurs there, the dialyzer is clogged and the blood pressure in the up-stream portion will increase. The change in the perfusion pressure at this site indicates the degree of blood coagulation in the dialysis circuit. In connection with parameters2 and 3, an aliquot of blood was sampled at the inlet and outlet of the dialysis part at given intervals of time to measure 2 and 3 by conventional methods. Parameters 2 and 3 indicate how the function of platelets and that of blood coagulation (the degree of activation), respectively, change with the progress of the experiments.
The experiments began with a continuous injection of a solution of the peptide of the present invention in saline from the arterial side (or the inlet side of the dialysis circuit) immediately after the circuit set-up. The amount of injection was 10 mg/dog or 30 mg/dog and the total amount was gradually injected over 1 hour (injection rate: 1 ml/min). In a control, only saline was continuously injected in the same manner. The injection of the drug was stopped after 60 minutes and blood was thereafter circulated up to 180 minutes to continue the measurement of the above parameters. […]

In series [6] the test system is B16F10 melanoma cells. The series is described as follows: adhesion of B16F10 melanoma cells to extracellular matrix protein adsorbed plates. It is filed as cell-based. On the procedure: as §1, §2, §3
The subject of series [7] is platelet aggregation. As to conditions: 400 μM; cited from earlier work.
The mark [8] stands for this setting: type 1 collagen, type 4 collagen, fibronectin, vitronectin.
The mark [9] stands for this setting: during the continuous injection of the drug.

Residues, ends and D or L forms follow the SMILES beside them. *: point of attachment. X1 = O=C(c1cc(=O)[nH]c(=O)[nH]1)*

Consider `NC(N)=NCCC[C@H](N)C(=O)NCC(=O)N[C@@H](CC(=O)O)C(=O)N[C@@H](CO)C(=O)O` [Comparative Example 1, Arg--Gly--Asp--Ser--OH], for which, in series [1], the “stability when added to a platelet fraction” value is reported as “broken down in several hours”.

For the compound `N=C(N)NCCC[C@H](NC(=O)[C@H](CO)NC(=O)c1cc(=O)[nH]c(=O)[nH]1)C(=O)NCC(=O)N[C@@H](CC(=O)O)C(=O)N[C@@H](Cc1c[nH]c2ccccc12)C(=O)O` [Example 9, Orotyl--Ser--Arg--Gly--Asp--Trp--OH] (X1-SRGDW-OH), the “platelet aggregation time course with changed collagen concentration or ADP as inducer” value in series [2] is listed as “the same results were obtained”. Moreover, the “platelet aggregation 5 minutes after the injection” value in series [2] (collagen 10 μg/ml as inducer) is recorded as “completely inhibited”. Moreover, the “time to complete recovery of platelet aggregation activity to the level before the injection” value in series [2] (collagen 10 μg/ml as inducer) was 45 to 60 min. Moreover, the “effect on cell adhesion to laminin” value in series [3] (laminin) and in series [6] (laminin) was “scarcely any effect” in each case. The “cell adhesion to the other extracellular matrix proteins” value in series [3] (setting [8]) and in series [6] (setting [8]) was “inhibited depending on the concentration” each time. Besides, the “aggregation activity of platelets remaining” value in series [4] (400 μM, after the 72 hour storage) is 60-70%. The “decrease in the number of platelets” value in series [4] (400 μM, storage period of 72 hours) is reported as “little decrease in the number of platelets”. The “decrease in the aggregation activity of platelets during storage” value in series [4] (dependent on peptide concentration, control decreased to 25% in 72 hours) is “the decrease in the aggregation activity was significantly inhibited”. For the same compound, in series [4] (room temperature, shaking, dependent on peptide concentration), the “decrease in the number of platelets during storage compared to the control group” value is listed as “significant inhibitory effect on the decrease in the number of platelets”. Moreover, the “increase in the perfusion pressure” value is listed as “the increase rate of the perfusion pressure was evidently slow” in series [5] (10 mg/dog continuously injected over 1 hour) and “little or no increase in the perfusion pressure” in series [5] (30 mg/dog continuously injected over 1 hour, during the injection). Further, in series [5] (setting [9]), the “blood coagulation ability during the continuous injection” value is on record as “approximately 0%”. In addition, the “whole blood coagulation time” value in series [5] (setting [9]) is given as “significantly prolonged”.

With GRGDSP, the “aggregation of platelets activated by ADP” value in series [7] was “completely inhibited”.
